Measured values reported in patent publication US12594276B2, “Inhibitors of human immunodeficiency virus replication” (ViiV Healthcare UK (No.5) Limited, priority 2024, dated 2026).
Where two headings read alike, the source gives them in different places.

What was measured:
[1] = test system: recombinant NL4-3 virus (nef section replaced with Renilla luciferase gene) in MT-2 cells; test: HIV cell culture assay (antiviral activity, luciferase readout); assay type: cell-based; details: Renilla, NL43, MT-2 cells infected for 4-5 days with recombinant NL4-3 Renilla luciferase virus
Method in brief: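 Compound activity was measured as reduction of luciferase in MT-2 cells infected for 4-5 days with serially diluted compound present. EC50 values were calculated with the median effect equation.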

[2] = Compound cytotoxicity, XTT-based colorimetric assay; assay type: cell-based; details: human
Method: Compound cytotoxicity and the corresponding CC50 values were determined using the same protocol as described in the antiviral assay except that uninfected cells were used. Cytotoxicity was assessed on day 4 in uninfected MT2 cells by using an XTT (2,3-bis[2-Methoxy-4-nitro-5-sulfophenyl]-2H-tetrazolium-5-carboxyanilide inner salt)-based colorimetric assay (Sigma-Aldrich, St Louis, Mo).

[3] = uninfected MT2 cells, day 4, XTT, read-out: CC50

SMILES: Cc1cc(C2(F)CCC(F)(F)CC2)nc2nc([C@H](Cc3cc(F)cc(F)c3)NC(=O)Cn3nc(C4CC4)c4c3C[C@@H]3C[C@H]43)n(-c3ccc(Cl)c4c(NS(C)(=O)=O)nn(CCN5CCO[C@H](C(C)C)C5)c34)c(=O)c12 (atropisomer, axis not shown; (P)) [Example 582, N-[(1S)-1-[(3P)-3-(4-chloro-3-methanesulfonamido-1-{2-[(2R)-2-(propan-2-yl)morpholin-4-yl]ethyl}-1H-indazol-7-yl)-5-methyl-4-oxo-7-(1,4,4-trifluorocyclohexyl)-3H,4H-pyrido[2,3-d]pyrimidin-2-yl]-2-(3,5-difluorophenyl)ethyl]-2-[(2S,4S)-9-cyclopropyl-7,8-diazatricyclo[4.3.0.0^2,^4]nona-1(6),8-dien-7-yl]acetamide]
- EC50 [1]: 0.017 nM
- CC50 at 4 days [2, 3]: > 20 nM

SMILES: Cc1cc(C2CCC(F)(F)CC2)nc2nc([C@H](Cc3cc(F)cc(F)c3)NC(=O)Cn3nc(C4CC4)c4c3C(F)(F)[C@@H]3C[C@H]43)n(-c3ccc(Cl)c4c(NS(C)(=O)=O)nn(CCN5CCOCC5)c34)c(=O)c12 (atropisomer, axis not shown; (P)) [Example 112, N-[(1S)-1-[(3P)-3-{4-chloro-3-methanesulfonamido-1-[2-(morpholin-4-yl)ethyl]-1H-indazol-7-yl}-7-(4,4-difluorocyclohexyl)-5-methyl-4-oxo-3H,4H-pyrido[2,3-d]pyrimidin-2-yl]-2-(3,5-difluorophenyl)ethyl]-2-[(2S,4R)-9-cyclopropyl-5,5-difluoro-7,8-diazatricyclo[4.3.0.0^2,^4]nona-1(6),8-dien-7-yl]acetamide]
- EC50 [1]: 0.013 nM
- CC50 at 4 days [2, 3]: > 50 nM

SMILES: Cc1cc(C2CCC(F)(F)CC2)nc2nc([C@H](Cc3cc(F)cc(F)c3)NC(=O)Cn3nc(C4CC4)c4c3C[C@@H]3C[C@H]43)n(-c3ccc(Cl)c4c(NS(C)(=O)=O)nn(CC(=O)NCCOC(C)C)c34)c(=O)c12 (atropisomer, axis not shown; (P)) [Example 393, N-[(1S)-1-[(3P)-3-[4-chloro-3-methanesulfonamido-1-({[2-(propan-2-yloxy)ethyl]carbamoyl}methyl)-1H-indazol-7-yl]-7-(4,4-difluorocyclohexyl)-5-methyl-4-oxo-3H,4H-pyrido[2,3-d]pyrimidin-2-yl]-2-(3,5-difluorophenyl)ethyl]-2-[(2S,4S)-9-cyclopropyl-7,8-diazatricyclo[4.3.0.0^2,^4]nona-1(6),8-dien-7-yl]acetamide]
- EC50 [1]: 0.035 nM
- CC50 at 4 days [2, 3]: > 20 nM

SMILES: Cc1cc(C2(F)CCC(F)(F)CC2)nc2nc([C@H](Cc3cc(F)cc(F)c3)NC(=O)Cn3nc(C(F)F)c4c3C[C@@H]3C[C@H]43)n(-c3ccc(Cl)c4c(NS(C)(=O)=O)nn(CCN5C[C@H](F)C[C@H](F)C5)c34)c(=O)c12 (atropisomer, axis not shown; (P)) [Example 571, N-[(1S)-1-[(3P)-3-(4-chloro-1-{2-[(3R,5S)-3,5-difluoropiperidin-1-yl]ethyl}-3-methanesulfonamido-1H-indazol-7-yl)-5-methyl-4-oxo-7-(1,4,4-trifluorocyclohexyl)-3H,4H-pyrido[2,3-d]pyrimidin-2-yl]-2-(3,5-difluorophenyl)ethyl]-2-[(2S,4S)-9-(difluoromethyl)-7,8-diazatricyclo[4.3.0.0^2,^4]nona-1(6),8-dien-7-yl]acetamide]
- EC50 [1]: 0.014 nM
- CC50 at 4 days [2, 3]: > 20 nM

SMILES: COCCCn1nc(NS(C)(=O)=O)c2c(Cl)ccc(-n3c([C@H](Cc4cc(F)cc(F)c4)NC(=O)Cn4nc(C(F)F)c5c4C(F)(F)[C@@H]4C[C@H]54)nc4nc(C5CCC(F)(F)CC5)cc(NCCN5CCC(F)(F)C5)c4c3=O)c21 (atropisomer, axis not shown; (P)) [Example 552, N-[(1S)-1-[(3P)-3-[4-chloro-3-methanesulfonamido-1-(3-methoxypropyl)-1H-indazol-7-yl]-7-(4,4-difluorocyclohexyl)-5-{[2-(3,3-difluoropyrrolidin-1-yl)ethyl]amino}-4-oxo-3H,4H-pyrido[2,3-d]pyrimidin-2-yl]-2-(3,5-difluorophenyl)ethyl]-2-[(2S,4R)-9-(difluoromethyl)-5,5-difluoro-7,8-diazatricyclo[4.3.0.0^2,^4]nona-1(6),8-dien-7-yl]acetamide]
- EC50 [1]: 0.006 nM
- CC50 at 4 days [2, 3]: > 20 nM

SMILES: COCCOCCn1nc(NS(C)(=O)=O)c2c(Cl)ccc(-n3c([C@H](Cc4cc(F)cc(F)c4)NC(=O)Cn4nc(C5CC5)c5c4C[C@@H]4C[C@H]54)nc4nc(C5CCC(F)(F)CC5)ccc4c3=O)c21 (atropisomer, axis not shown; (P)) [Example 237, N-[(1S)-1-[(3P)-3-{4-chloro-3-methanesulfonamido-1-[2-(2-methoxyethoxy)ethyl]-1H-indazol-7-yl}-7-(4,4-difluorocyclohexyl)-4-oxo-3H,4H-pyrido[2,3-d]pyrimidin-2-yl]-2-(3,5-difluorophenyl)ethyl]-2-[(2S,4S)-9-cyclopropyl-7,8-diazatricyclo[4.3.0.0^2,^4]nona-1(6),8-dien-7-yl]acetamide]
- EC50 [1]: 0.006 nM
- CC50 at 4 days [2, 3]: > 50 nM

SMILES: COCCNc1cc(C2CCC(F)(F)CC2)nc2nc([C@H](Cc3cc(F)cc(F)c3)NC(=O)Cn3nc(C(F)F)c4c3C(F)(F)[C@@H]3C[C@H]43)n(-c3ccc(Cl)c4c(NS(C)(=O)=O)nn(CCN5C[C@H](F)C[C@H](F)C5)c34)c(=O)c12 (atropisomer, axis not shown; (P)) [Example 414, N-[(1S)-1-[(3P)-3-(4-chloro-1-{2-[(3R,5S)-3,5-difluoropiperidin-1-yl]ethyl}-3-methanesulfonamido-1H-indazol-7-yl)-7-(4,4-difluorocyclohexyl)-5-[(2-methoxyethyl)amino]-4-oxo-3H,4H-pyrido[2,3-d]pyrimidin-2-yl]-2-(3,5-difluorophenyl)ethyl]-2-[(2S,4R)-9-(difluoromethyl)-5,5-difluoro-7,8-diazatricyclo[4.3.0.0^2,^4]nona-1(6),8-dien-7-yl]acetamide]
- EC50 [1]: 0.01 nM
- CC50 at 4 days [2, 3]: > 20 nM

SMILES: Cc1cc(C2CCC(F)(F)CC2)nc2nc([C@H](Cc3cc(F)cc(F)c3)NC(=O)Cn3nc(C4CC4)c4c3C[C@@H]3C[C@H]43)n(-c3ccc(Cl)c4c(NS(C)(=O)=O)nn(CCN5C[C@H]6C[C@@H](C5)O6)c34)c(=O)c12 (atropisomer, axis not shown; (P)) [Example 7, N-[(1S)-1-[(3P)-3-(4-chloro-3-methanesulfonamido-1-{2-[(1R,5S)-6-oxa-3-azabicyclo[3.1.1]heptan-3-yl]ethyl}-1H-indazol-7-yl)-7-(4,4-difluorocyclohexyl)-5-methyl-4-oxo-3H,4H-pyrido[2,3-d]pyrimidin-2-yl]-2-(3,5-difluorophenyl)ethyl]-2-[(2S,4S)-9-cyclopropyl-7,8-diazatricyclo[4.3.0.0^2,^4]nona-1(6),8-dien-7-yl]acetamide]
- EC50 [1]: 0.009 nM
- CC50 at 4 days [2]: > 50 nM
